pIC50: −log10 of the molar value. ≈ marks a conversion by molar mass, not a printed value. Where two headings read alike, the source gives them in different places.
Key:
[1] = test system: Streptococcus pneumoniae 1/1; assay: MIC against Streptococcus pneumoniae 1/1 (trimethoprim- and penicillin-resistant clinical isolate, serotype 6); format: cell-based; conditions: Streptococcus pneumoniae 1/1, trimethoprim- and penicillin-resistant, serotype 6; for MIC: read-out: Spn 1/1 MIC
Protocol: The following Tables 1 and 2 contain inhibitory concentrations determined in the above test for representative members of the class of compound defined by formula I. The following microorganisms were tested: […]
Col. 2: MIC Spn1/1; μg/ml (Streptococcus pneumoniae 1/1, Trimethoprim- and Penicillin-resistant, Serotype 6; clinical isolate, stored at −80° C.). Lit.: H. Locher et al., Can. J. Infect. Dis. 6: Suppl. C, p 469C.

[2] = test system: Streptococcus pneumoniae ATCC 49619; assay: MIC against Streptococcus pneumoniae ATCC 49619 (trimethoprim- and penicillin-susceptible reference strain); format: cell-based; conditions: Streptococcus pneumoniae ATCC 49619, trimethoprim- and penicillin-susceptible; for MIC: ATCC49619, read-out: Spn 49619 MIC
Protocol: The following Tables 1 and 2 contain inhibitory concentrations determined in the above test for representative members of the class of compound defined by formula I. The following microorganisms were tested: Col. 1: […]

[3] = molecular target: purified DHFR of strain Spn1/1 (Streptococcus pneumoniae serotype 4, UniProt Q54801, E20D/I100L/L135F/P70S/Q81H); assay: biochemical
Excerpt: Col. 3: DHFR Spn1/1; μM)—the IC50-values in μM against the purified DHFR of the above strain Spn1/1; of Streptococcus pneumoniae.

Sequence of purified DHFR of strain Spn1/1 (Q54801 whole entry E20D/P70S/Q81H/I100L/L135F): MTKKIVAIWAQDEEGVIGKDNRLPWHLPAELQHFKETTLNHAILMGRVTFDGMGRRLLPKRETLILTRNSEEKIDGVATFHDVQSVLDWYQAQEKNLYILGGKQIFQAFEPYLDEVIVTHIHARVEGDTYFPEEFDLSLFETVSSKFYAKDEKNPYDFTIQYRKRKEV

Compound | Spn 1/1 MIC [1] | Spn 49619 MIC [2] | pIC50 ([3]; purified DHFR of S. pneumoniae strain Spn1/1, read-out: Spn 1/1 IC50) | MIC [1] | MIC [2] | pIC50 [3]
6-(2,4-Diamino-pyrimidin-5-ylmethyl)-4-ethoxy-indole-1-sulfonic Acid dimethylamide [Example 2e] | 4 mg/L | 0.06 mg/L | 6.96 | – | – | –
CCn1cc(CN2CC(C)OC(C)C2)c2c(OS(=O)(=O)C(C)C)cc(Cc3cnc(N)nc3N)cc21 (mixture of isomers) [Example 10d, (cis/trans)-Propane-2-sulfonic acid 6-(2,4-diamino-pyrimidin-5-ylmethyl)-3-(2,6-dimethyl-morpholin-4-ylmethyl)-1-ethyl-1H-indol-4-yl ester] | – | – | – | 8 mg/L | 1 mg/L | 6.60
CCC(C)S(=O)(=O)Oc1cc(Cc2cnc(N)nc2N)cc2c1ccn2C (racemic) [Example 5e, rac-Butane-2-sulfonic acid 6-(2,4-diamino-pyrimidin-5-ylmethyl)-1-methyl-1H-indol-4-yl ester] | – | – | – | 8 mg/L (≈ 20.5 µM) | 0.125 mg/L (≈ 0.321 µM) | 7.89
CCn1ccc2c(OCC3CCCO3)cc(Cc3cnc(N)nc3N)cc21 (racemic) [Example 7i, rac-5-[1-Ethyl-4-(tetrahydro-furan-2-ylmethoxy)-1H-indol-6-ylmethyl]-pyrimidine-2,4-diamine] | – | – | – | 8 mg/L (≈ 21.8 µM) | 0.5 mg/L (≈ 1.36 µM) | 7.89
CCC(C)S(=O)(=O)Oc1cc(Cc2cnc(N)nc2N)cc2c1ccn2CC (racemic) [Example 8d, rac-Butane-2-sulfonic acid 6-(2,4-diamino-pyrimidin-5-ylmethyl)-1-ethyl-1H-indol-4-yl ester] | – | – | – | 1 mg/L (≈ 2.48 µM) | 0.03 mg/L (≈ 0.0743 µM) | 8.74
CCC(C)S(=O)(=O)Oc1cc(Cc2cnc(N)nc2N)cc2c1cc(C)n2CC (racemic) [Example 15c, rac-Butane-2-sulfonic acid 6-(2,4-diamino-pyrimidin-5-ylmethyl)-1-ethyl-2-methyl-1H-indol-4-yl ester] | – | – | – | 2 mg/L (≈ 4.79 µM) | 0.03 mg/L (≈ 0.0719 µM) | 8.06
CCOc1cc(Cc2cnc(N)nc2N)cc(OCC)c1-n1cccc1 [Epiroprim, reference compound] | – | – | – | 4 mg/L (≈ 11.3 µM) | 0.125 mg/L (≈ 0.354 µM) | 6.72
CCOc1cc(Cc2cnc(N)nc2N)cc2c1ccn2CC1CC1 [Example 2a, 5-(1-cyclopropylmethyl-4-ethoxy-1H-indol-6-ylmethyl)-pyrimidine-2,4-diamine] | – | – | – | > 8 mg/L | 0.5 mg/L (≈ 1.48 µM) | 6.96
CCOc1cc(Cc2cnc(N)nc2N)cc2c1ccn2C1CCCC1 [Example 2b, 5-(1-Cyclopentyl-4-ethoxy-1H-indol-6-ylmethyl)-pyrimidine-2,4-diamine] | – | – | – | 8 mg/L (≈ 22.8 µM) | 0.5 mg/L (≈ 1.42 µM) | 6.82
CCOc1cc(Cc2cnc(N)nc2N)cc2c1ccn2Cc1ccccc1 [Example 2c, 5-(1-Benzyl-4-ethoxy-1H-indol-6-ylmethyl)-pyrimidine-2,4-diamine] | – | – | – | > 8 mg/L | 2 mg/L (≈ 5.36 µM) | 6.34
CCOc1cc(Cc2cnc(N)nc2N)cc2c1ccn2S(=O)(=O)C(C)C [Example 2d, 5-[4-Ethoxy-1-(propane-2-sulfonyl)-1H-indol-6-ylmethyl]-pyrimidine-2,4-diamine] | – | – | – | > 8 mg/L | 0.5 mg/L (≈ 1.28 µM) | 6.48
CCOc1cc(Cc2cnc(N)nc2N)cc2c1ccn2CC [Example 3, 5-(4-Ethoxy-1-ethyl-1H-indol-6-ylmethyl)-pyrimidine-2,4-diamine] | – | – | – | 4 mg/L (≈ 12.8 µM) | 0.125 mg/L (≈ 0.401 µM) | 7.62
Cn1ccc2c(OCC3CC3)cc(Cc3cnc(N)nc3N)cc21 [Example 5a, 5-(4-Cyclopropylmethoxy-1-methyl-1H-indol-6-ylmethyl)-pyrimidine-2,4-diamine] | – | – | – | 4 mg/L (≈ 12.4 µM) | 0.25 mg/L (≈ 0.773 µM) | 6.96
CC(C)Oc1cc(Cc2cnc(N)nc2N)cc2c1ccn2C [Example 5b, 5-(4-Isopropoxy-1-methyl-1H-indol-6-ylmethyl)-pyrimidine-2,4-diamine] | – | – | – | > 8 mg/L | 0.5 mg/L (≈ 1.61 µM) | 6.77
CC(C)S(=O)(=O)Oc1cc(Cc2cnc(N)nc2N)cc2c1ccn2C [Example 5c, Propane-2-sulfonic acid 6-(2,4-diamino-pyrimidin-5-ylmethyl)-1-methyl-1H-indol-4-yl ester] | – | – | – | 4 mg/L (≈ 10.7 µM) | 0.25 mg/L (≈ 0.666 µM) | 7.08
CC(C)CS(=O)(=O)Oc1cc(Cc2cnc(N)nc2N)cc2c1ccn2C [Example 5d, 2-Methyl-propane-1-sulfonic acid 6-(2,4-diamino-pyrimidin-5-ylmethyl)-1-methyl-1H-indol-4-yl ester] | – | – | – | 4 mg/L (≈ 10.3 µM) | 0.125 mg/L (≈ 0.321 µM) | 7.44

Compound | Spn 1/1 MIC [1] | Spn 49619 MIC [2] | pIC50 ([3]; purified DHFR of S. pneumoniae strain Spn1/1, read-out: Spn 1/1 IC50) | MIC [1] | MIC [2] | pIC50 [3]
CCn1ccc2c(OCC3CC3)cc(Cc3cnc(N)nc3N)cc21 [Example 7a, 5-(4-Cyclopropylmethoxy-1-ethyl-1H-indol-6-ylmethyl)-pyrimidine-2,4-diamine] | – | – | – | 4 mg/L (≈ 11.9 µM) | 0.125 mg/L (≈ 0.37 µM) | 7.68
CCn1ccc2c(OC)cc(Cc3cnc(N)nc3N)cc21 [Example 7b, 5-(1-Ethyl-4-methoxy-1H-indol-6-ylmethyl)-pyrimidine-2,4-diamine] | – | – | – | 8 mg/L (≈ 26.9 µM) | 0.5 mg/L (≈ 1.68 µM) | 6.39
CCn1ccc2c(OC(C)C)cc(Cc3cnc(N)nc3N)cc21 [Example 7c, 5-(1-Ethyl-4-isopropoxy-1H-indol-6-ylmethyl)-pyrimidine-2,4-diamine] | – | – | – | 4 mg/L (≈ 12.3 µM) | 0.25 mg/L (≈ 0.768 µM) | 6.85
C#CCOc1cc(Cc2cnc(N)nc2N)cc2c1ccn2CC [Example 7d, 5-(1-Ethyl-4-prop-2-ynyloxy-1H-indol-6-ylmethyl)-pyrimidine-2,4-diamine] | – | – | – | 8 mg/L (≈ 24.9 µM) | 0.125 mg/L (≈ 0.389 µM) | 7.15
CCn1ccc2c(OCC3OCCO3)cc(Cc3cnc(N)nc3N)cc21 [Example 7e, 5-[4-([1,3]Dioxolan-2-ylmethoxy)-1-ethyl-1H-indol-6-ylmethyl]-pyrimidine-2,4-diamine] | – | – | – | 8 mg/L (≈ 21.7 µM) | 1 mg/L (≈ 2.71 µM) | 6.68
CCn1ccc2c(OCC3CCC3)cc(Cc3cnc(N)nc3N)cc21 [Example 7f, 5-(4-Cyclobutylmethoxy-1-ethyl-1H-indol-6-ylmethyl)-pyrimidine-2,4-diamine] | – | – | – | 2 mg/L (≈ 5.69 µM) | 0.5 mg/L (≈ 1.42 µM) | 7.39
CCn1ccc2c(OCC(C)C)cc(Cc3cnc(N)nc3N)cc21 [Example 7g, 5-(1-Ethyl-4-isobutoxy-1H-indol-6-ylmethyl)-pyrimidine-2,4-diamine] | – | – | – | 2 mg/L (≈ 5.89 µM) | 0.5 mg/L (≈ 1.47 µM) | 7.54
CCn1ccc2c(OCC3(C)CC3)cc(Cc3cnc(N)nc3N)cc21 [Example 7h, 5-[1-Ethyl-4-(1-methyl-cyclopropylmethoxy)-1H-indol-6-ylmethyl]-pyrimidine-2,4-diamine] | – | – | – | 4 mg/L (≈ 11.4 µM) | 1 mg/L (≈ 2.85 µM) | 7.82
CCn1ccc2c(OS(=O)(=O)C(C)C)cc(Cc3cnc(N)nc3N)cc21 [Example 8a, Propane-2-sulfonic acid 6-(2,4-diamino-pyrimidin-5-ylmethyl)-1-ethyl-1H-indol-4-yl ester] | – | – | – | 1 mg/L (≈ 2.57 µM) | 0.03 mg/L (≈ 0.077 µM) | 7.55
CCn1ccc2c(OS(=O)(=O)CC3CC3)cc(Cc3cnc(N)nc3N)cc21 [Example 8b, Cyclopropyl-methanesulfonic acid 6-(2,4-diamino-pyrimidin-5-ylmethyl)-1-ethyl-1H-indol-4-yl ester] | – | – | – | 1 mg/L (≈ 2.49 µM) | ≤ 0.015 mg/L | 8.82
CCn1ccc2c(OS(=O)(=O)CC(C)C)cc(Cc3cnc(N)nc3N)cc21 [Example 8c, 2-Methyl-propane-1-sulfonic acid 6-(2,4-diamino-pyrimidin-5-ylmethyl)-1-ethyl-1H-indol-4-yl ester] | – | – | – | 2 mg/L (≈ 4.96 µM) | ≤ 0.015 mg/L | 8.82
CCn1ccc2c(OS(=O)(=O)N(C)C)cc(Cc3cnc(N)nc3N)cc21 [Example 9, Dimethyl-sulfamic Acid 6-(2,4-diamino-pyrimidin-5-ylmethyl)-1-ethyl-1H-indol-4-yl ester] | – | – | – | 2 mg/L (≈ 5.12 µM) | 0.03 mg/L (≈ 0.0768 µM) | 7.54
CCn1cc(CN2CCOCC2)c2c(OCC3CC3)cc(Cc3cnc(N)nc3N)cc21 [Example 10a, 5-(4-Cyclopropylmethoxy-1-ethyl-3-morpholin-4-ylmethyl-1H-indol-6-ylmethyl)-pyrimidine-2,4-diamine] | – | – | – | 8 mg/L (≈ 18.3 µM) | 0.25 mg/L (≈ 0.573 µM) | 6.74
CCn1cc(CN2CCOCC2)c2c(OS(=O)(=O)C(C)C)cc(Cc3cnc(N)nc3N)cc21 [Example 10b, Propane-2-sulfonic acid 6-(2,4-diamino-pyrimidin-5-ylmethyl)-1-ethyl-3-morpholino-4-ylmethyl-1H-indol-4-ester] | – | – | – | 8 mg/L (≈ 16.4 µM) | 0.5 mg/L (≈ 1.02 µM) | 6.96
CCn1cc(CN2CCSCC2)c2c(OS(=O)(=O)C(C)C)cc(Cc3cnc(N)nc3N)cc21 [Example 10c, Propane-2-sulfonic acid 6-(2,4-diamino-pyrimidin-5-ylmethyl)-1-ethyl-3-thiomorpholin-4-ylmethyl-1H-indol-4-yl ester] | – | – | – | 4 mg/L (≈ 7.93 µM) | 1 mg/L (≈ 1.98 µM) | 6.80
COc1cc(Cc2cnc(N)nc2N)cc(OC)c1OC [Trimethoprim, reference compound] | – | – | – | > 32 mg/L | 4 mg/L (≈ 13.8 µM) | –

Source: patent US6703397B2, “Pyrimidinyl methyl indole derivatives with antibacterial activity” (Basilea Pharmaceutica AG, priority 2000, dated 2004)
